The record followed here is publication PMC9403717, “Ruthenium complexes show potent inhibition of AKR1C1, AKR1C2, and AKR1C3 enzymes and anti-proliferative action against chemoresistant ovarian cancer cell line” (Frontiers in Pharmacology, 2022).

A word on the pIC50: it is −log10 of the IC50, conventionally taken in molar units.

pIC50: −log10 of the molar value. Several values for one entry are separate records, joined by “and”; a condition that tells them apart may be missing. Equal entries are not always repeated. A value given as a limit tells only on which side of the number the result lay.

The assay concerns COV362 cells. In words: Cell proliferation assay (alamarBlue), chemoresistant ovarian cancer cell line COV362. Type of assay: cell-based, human. To be noted: for pIC50: 48 h incubation. How it is done: The cell line COV362 (CVCL_2,420) was originally established from a high-grade ovarian serous adenocarcinoma from a metastatic site in the pleural effusion ([van den Berg-Bakker et al., 1993]) and was purchased from ECACC (ECACC 07071910) as p37 on 13 October 2017. The growth medium for COV362 cells was DMEM (D5546; Sigma–Aldrich GmbH), with 10% FBS (F9665; Sigma–Aldrich GmbH) and 2 mM L-glutamine (G7513; Sigma–Aldrich GmbH). COV362 cells in passages p37 + 12 to p37 + 17 were used in this study and seeded at a concentration of 3.5 cells/ml × 10^4 cells/ml for proliferation studies and at a concentration of 5.3 × 10^5/ml for migration studies. The cell line OVCAR-4 (CVCL_1,627) is a high-grade serous ovarian adenocarcinoma cell line established from a patient refractory to cisplatin ([Johnson et al., 1997]). The cell line was purchased from Merck on 19 March 2021. The growth medium for OVCAR-4 cells was RPMI-1640 (Sigma R5586) supplemented with 2 mM glutamine (G7513; Sigma–Aldrich GmbH), 10% FBS (F9665; Sigma–Aldrich GmbH), 0.25 μg/ml insulin (I9278; Sigma–Aldrich GmbH). OVCAR-4 cells in passages p+6 to p+15 were used in this study and seeded at a concentration of 6 cells/ml × 10^4 cells/ml. The control cell line HIO80 (CVCL_E274) was obtained from Andrew K. Godwin (University of Kansas Medical Center, Kansas, United States) on 20 October 2017 as p+72. It was originally established from ovarian surface epithelium ([Yang et al., 2004]). HIO80 cells were grown in RPMI medium (R5886, Sigma–Aldrich GmbH) supplemented with 10% FBS (F9665; Sigma–Aldrich GmbH), 2 mm L-glutamine (G7513; Sigma–Aldrich GmbH) and 6.6 µg/ml insulin (I9278; Sigma–Aldrich GmbH). HIO80 cells in passages p72 + 8 to p72 + 19 were used in this study and seeded at a concentration of 2 × 10^4 cells/mL. HIO80 in passage +10 was authenticated by short tandem repeats (STR) profiling performed by ATCC on 22 February 2019. Cells were grown in a humidified atmosphere containing 5% CO2 at 37°C. All cell lines were negative for mycoplasma infection which was periodically tested using MycoAlert^TM mycoplasma detection kit (Lonza, Basel, Switzerland).
The effect of ruthenium compounds on the proliferation of ovarian cancer cell lines COV362 and OVCAR-4 and the control cell line HIO80 was analyzed using the cell proliferation reagent alamarBlue HS (A50101; Thermo Fisher Scientific) following the manufacturer’s instructions.
Cells were seeded in 96-well plates in 100 µL of medium and allowed to adhere and grow for 24 h. […] Cisplatin and carboplatin purchased from Sigma–Aldrich GmbH (cat. number: PHR1624, lot: LRAB7778) and (cat. number: C2538, lot: MKCK1243) were dissolved in sterile water. Working solutions were prepared by a serial dilution of stock solutions with a culture medium. After the initial incubation, cells were treated with ruthenium complexes, cisplatin, and carboplatin. A range of final concentrations between 0.001 and 300 µM were used for ruthenium complexes and cisplatin, and between 0.001 µM and 1 mM for carboplatin. After 48 h of incubation, plates were incubated with 20 µL of alamarBlue. After 4 h absorbance was measured with a BioTek microplate spectrophotometer at 570 nm, with the reference wavelength set at 600 nm. First, the background value of a well containing the active substance without cells was subtracted, then the average values for duplicates/triplicates were calculated. The absorbance of the well containing only untreated cells was used as a normalization control. The half-maximal […] concentration (IC50) was determined for all ruthenium complexes with a growth-inhibiting effect on cells by constructing a dose-response curve (Graph Pad Prism, Version 8.0).

`Cc1ccc(C(C)C)cc1.O=C(C=C([O][Ru][Cl])c1ccc(I)cc1)C(F)(F)F` [Compound 1]: the pIC50 was 4.02.
Still for that read-out and setting: under `C1N2CN3CN1CP(C2)C3.Cc1ccc(C(C)C)cc1.F[P-](F)(F)(F)(F)F.O=C(C=C([O][Ru+])c1ccc(I)cc1)C(F)(F)F` [Compound 2] stands 3.85.
Still for that read-out and setting: under `CN(C)c1ccc(C(=CC(=O)C(F)(F)F)[O][Ru][Cl])cc1.Cc1ccc(C(C)C)cc1` [Compound 3, (η^6-p-cymene)chlorido(4,4,4-trifluoro-1-(4-(dimethylamino)phenyl)-1,3-butandionato)ruthenium(II)] stands > 4.00 and 4.04.
The same measure, in the same setting: the same measure for `Cc1ccc(C(C)C)cc1.O=C(C=C([O][Ru][Cl])c1ccc2c(c1)OCO2)C(F)(F)F` [Compound 5]: 3.87.
In the case of `C1N2CN3CN1CP(C2)C3.Cc1ccc(C(C)C)cc1.F[P-](F)(F)(F)(F)F.O=C(C=C([O][Ru+])c1ccc2c(c1)OCO2)C(F)(F)F` [Compound 6], the pIC50 was 3.82.
The same measure, in the same setting: the same measure for `Cc1ccc(C(C)C)cc1.[Cl-].[O-]c1c(I)cc(Cl)c2cccnc12.[Ru+2]` [Compound 7]: 4.75.
Still for that read-out and setting: the same measure for `C1N2CN3CN1CP(C2)C3.Cc1ccc(C(C)C)cc1.F[P-](F)(F)(F)(F)F.[O-]c1c(I)cc(Cl)c2cccnc12.[Ru+2]` [Compound 8]: 4.42.
In turn, `Cc1ccc(C(C)C)cc1.O=[N+]([O-])c1ccc([O][Ru][Cl])c2ncccc12` [Compound 9, (η ^6-p-Cymene) (nitroxolinato)chloridoruthenium (II)] gave a negative-log IC50 (pIC50) of 4.67.
As to `C1N2CN3CN1CP(C2)C3.Cc1ccc(C(C)C)cc1.F[P-](F)(F)(F)(F)F.O=[N+]([O-])c1ccc([O][Ru+])c2ncccc12` [Compound 10, (η ^6-p-cymene)(nitroxolinato)(pta)ruthenium(II) hexafluorophosphate], the “effect on proliferation (in words)” value was “inactive” and the pIC50 is less than 3.70.
